Experimental data as given in article PMC11249637, “Interaction of the Atypical Tetracyclines Chelocardin and Amidochelocardin with Renal Drug Transporters” (ACS Pharmacology & Translational Science, 2024).

Assays:
mOct2 = biological target: T1, mOct2 (Mus musculus, UniProt O70577); experiment: Two-point inhibition of mOct2-mediated MPP uptake in transfected HEK293 cells; assay type: in vitro ADME; conditions: 1 and 10 μM; MPP 10 μM, 1 min
T1 construct: expressed in transfected cells; host or cells: HEK293
T1 sequence (O70577 1-553): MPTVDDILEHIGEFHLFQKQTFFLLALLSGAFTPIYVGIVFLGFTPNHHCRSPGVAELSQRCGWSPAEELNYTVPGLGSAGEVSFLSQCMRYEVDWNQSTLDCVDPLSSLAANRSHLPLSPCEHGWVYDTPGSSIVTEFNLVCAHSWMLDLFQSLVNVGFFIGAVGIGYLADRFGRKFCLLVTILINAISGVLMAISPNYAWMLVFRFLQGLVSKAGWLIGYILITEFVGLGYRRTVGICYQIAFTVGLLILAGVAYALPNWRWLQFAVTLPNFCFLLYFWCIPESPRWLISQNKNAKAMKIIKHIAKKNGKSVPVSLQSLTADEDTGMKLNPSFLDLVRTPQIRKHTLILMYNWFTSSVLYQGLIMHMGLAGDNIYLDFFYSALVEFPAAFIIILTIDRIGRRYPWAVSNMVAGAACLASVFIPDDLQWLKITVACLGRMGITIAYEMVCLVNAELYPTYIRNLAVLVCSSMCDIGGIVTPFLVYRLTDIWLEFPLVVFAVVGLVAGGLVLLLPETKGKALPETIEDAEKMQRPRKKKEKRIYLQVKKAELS
Method: (§1) Well-characterized mOct1-, mOct2-, mOat1-, mOat2-, mOat3-, mMate1-, hOAT1-, hOAT3-, hOAT4-, hMRP2-, mMdr1a- and mMdr1b-transfected HEK293 cells and the respective vector-transfected control HEK293 cells were used.[42],[51],[52] All HEK293 cells (transporter-transfected and vector-transfected) were cultured in DMEM (Sigma, high glucose, 10% FBS, 1% penicillin (10,000 Units/mL)/streptomycin (10 mg/mL)) at 37°C under 5% CO2 in humidified atmosphere. The cells were routinely checked for the absence of mycoplasma infection. For the preparation of HEK293 cell monolayers, 24-well plates were pretreated with a poly-D-lysine hydrobromide solution (0.1 mg/mL). […]
(§2) For the uptake assay, the growth medium was aspirated, and each well was rinsed three times with 0.5 mL of incubation buffer (HBSS supplemented with 20 mM HEPES, pH 7.4) and incubated for 20 min at 37 °C. […] Cells were solubilized with 0.6 mL of 1N NaOH overnight and transferred into scintillation vials. ^3H and ^14C contents were measured after the addition of 2.5 mL of scintillator in a liquid scintillation counter.
(§3) The cellular protein amount was determined in parallel for each cell line (vector- and transporter-transfected) from six wells in a different 24-well reference plate using the Bradford method. […]
(§4) The inhibitory effect (I(%)) was calculated according to the formula: [drawing 5] […]

mOat3 = biological target: T2, mOat3 (Mus musculus, UniProt O88909); experiment: Two-point inhibition of mOat3-mediated ES uptake in transfected HEK293 cells; assay type: in vitro ADME; conditions: ES 1 μM, 1 min
T2 construct: expressed in transfected cells; host or cells: HEK293
T2 sequence (O88909 1-537): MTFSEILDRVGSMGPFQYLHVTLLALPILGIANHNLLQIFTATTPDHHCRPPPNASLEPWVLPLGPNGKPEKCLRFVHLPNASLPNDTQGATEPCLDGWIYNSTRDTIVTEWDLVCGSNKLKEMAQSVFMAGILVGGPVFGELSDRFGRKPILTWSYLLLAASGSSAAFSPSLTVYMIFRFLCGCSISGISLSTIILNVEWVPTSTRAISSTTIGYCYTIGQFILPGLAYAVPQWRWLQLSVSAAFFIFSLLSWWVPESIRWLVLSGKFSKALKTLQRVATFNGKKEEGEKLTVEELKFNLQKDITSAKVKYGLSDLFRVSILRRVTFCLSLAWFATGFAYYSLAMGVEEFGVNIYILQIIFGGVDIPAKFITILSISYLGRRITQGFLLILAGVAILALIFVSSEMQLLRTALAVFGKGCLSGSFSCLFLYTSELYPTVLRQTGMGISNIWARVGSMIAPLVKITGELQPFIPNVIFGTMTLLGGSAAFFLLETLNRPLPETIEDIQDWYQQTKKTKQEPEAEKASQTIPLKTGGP
Method: as §1, §2, §3, §4

[1] = design: method as in PMID 38047701; conditions: PK samples; cited from earlier work

## Cc1ccc2c(C)c3c(c(O)c2c1O)C(=O)[C@@]1(O)C(=O)C(C(N)=O)=C(O)[C@@H](N)[C@H]1C3 [CDCHD, amidochelocardin]
mOct2
  inhibitory effect on mOct2 (in words): No inhibitory effect
mOat3; 1 and 10 μM
  inhibitory effect on mOat3 (in words): no inhibitory effect
[1]
  irreversible toxicity in histopathological analysis of kidneys and livers (in words): has not been observed

## CC(=O)C1=C(O)[C@@H](N)[C@H]2Cc3c(c(O)c4c(O)c(C)ccc4c3C)C(=O)[C@@]2(O)C1=O [CHD, chelocardin]
mOct2
  inhibitory effect on mOct2 (in words): No inhibitory effect
mOat3; HEK293, at 10 μM, read-out: inhibitory effect on mOat3
  inhibition at 10 µM: > 50%
[1]
  irreversible toxicity in histopathological analysis of kidneys and livers (in words): has not been observed
